Marks after values point to notes of the source that are not given here.
Tests used:
skin cancer (A431) = test: cells; assay type: cell-based; conditions: Homo sapiens, 48 h
HCT116 [1] = test: DNA damage, comet assay, HCT116; assay type: cell-based, human
A549 [2] = test: DNA fragmentation assay, A549; assay type: cell-based, human
KRAS = test: qRT-PCR, KRAS in A549 cells; assay type: cell-based, human; conditions: versus negative samples
colon cancer (HCT116) = test: cells; assay type: cell-based; conditions: Homo sapiens, 48 h
BRCA1 = test: qRT-PCR, BRCA1 in PC3 cells; assay type: cell-based, human; conditions: versus negative samples
FASN = test: qRT-PCR, FASN in HCT116 cells; assay type: cell-based, human; conditions: versus negative samples
[3] = system: pancreatic cancer cell line (PACA2); test: cells; assay type: cell-based; conditions: Homo sapiens, 48 h
A549 [4] = test: DNA damage, comet assay, A549; assay type: cell-based, human; conditions: of 400 cells analyzed
HCT116 [5] = test: DNA fragmentation assay, HCT116; assay type: cell-based, human
prostate cancer (PC3) = test: cells; assay type: cell-based; conditions: Homo sapiens, 48 h
BRCA2 = test: qRT-PCR, BRCA2 in PC3 cells; assay type: cell-based, human; conditions: versus negative samples
[6] = system: hepatocellular carcinoma cell line (HePG2); test: cells; assay type: cell-based; conditions: Homo sapiens, 48 h
CDKN2A = test: qRT-PCR, CDKN2A in PACA2 cells; assay type: cell-based, human; conditions: versus negative untreated sample
EGFR = test: qRT-PCR, EGFR in A549 cells; assay type: cell-based, human; conditions: versus negative samples
PACA2 [7] = test: DNA fragmentation assay, PACA2; assay type: cell-based, human
[8] = system: normal skin fibroblast cell line (BJ1); test: cells; assay type: cell-based; conditions: Homo sapiens, Skin fibroblast, MTT, 48 h
in vitro = assay type: cell-based; conditions: human, BJ1 normal skin fibroblast cells, 100 μg/mL
PALB2 = test: qRT-PCR, PALB2 in PACA2 cells; assay type: cell-based, human; conditions: versus negative untreated sample
[9] = system: human lung carcinoma (A549); test: cells; assay type: cell-based; conditions: 48 h
TP53 = test: qRT-PCR, TP53 in HCT116 cells; assay type: cell-based, human; conditions: versus negative samples
Experimental: RNA was extracted from pancreas, prostate, lung and liver cell lines using a total RNA purification kit (Qiagen, Hilden, Germany) according to the manufacturer's instructions. An aliquot of RNA was diluted in RNase-free water to estimate RNA quantity. Aliquots were used immediately for reverse transcription (RT). cDNA synthesis was performed on extracted RNA, which was treated with DNase (Invitrogen, Germany) to remove any possible DNA contamination. The DNase-treated RNA was reverse transcribed into first-strand cDNA using the RevertAid First Strand cDNA Synthesis kit (Fermantas) according to the manufacturer's instructions. Determination of the pancreas, prostate, lung and liver cell line cDNA copy number was carried out using StepOne™ Real-Time PCR System from Applied Biosystems (Thermo Fisher Scientific, Waltham, MA USA). Gene expressions were detected by real-time PCR, which was performed using the Rotor-Gene Q system (Qiagen Company). A 25 µL reaction mixture consisted of 12.5 µL SYBR® Premix Ex TaqTM (TaKaRa, Biotech. Co. Ltd.), 0.5 µL of each primer (10 PMole) (Table 1), 1 µL cDNA (50 ng) and 10.5 µL RNase free water. The optimum amplification conditions were chosen empirically according to each tested gene. Generally, the amplification conditions include initial incubation (95.0 °C for 3 min), then 40 cycles of amplification with denaturation (95.0 °C for 15 s), annealing (55.0 °C for 30 s) and extension (72.0 °C for 30 s) steps then 71 cycles which started at 60.0 °C and then increased about 0.5 °C every 10 s up to 95.0 °C. Mean cycle threshold (Ct) values of triplicate samples are used for analysis. The Ct value indicates the fractional cycle number at which the amount of amplified target reaches a fixed threshold. Data from real-time PCR were analyzed using 2^−∆∆Ct method[38]–[40]. Data were represented as the fold change in target gene expression normalized to a House-Keeping gene (HKG) and relative to the control. β-actin was used as a HKG to normalize input RNA amount, RNA quality and reverse transcription efficiency.

PC3 [10] = test: DNA damage, comet assay, PC3; assay type: cell-based, human
[11] = system: osteosarcoma cell line (HOS); test: cells; assay type: cell-based; conditions: Homo sapiens, 48 h
PC3 [12] = test: DNA fragmentation assay, PC3; assay type: cell-based, human
PACA2 [13] = test: DNA damage, comet assay, PACA2; assay type: cell-based, human

SMILES: COc1cccc2c1C(=O)c1c(O)c3c(c(O)c1C2=O)C[C@@](O)(C(=O)CO)C[C@@H]3O[C@H]1C[C@H](N)[C@H](O)[C@H](C)O1 [Doxorubicin, reference compound]
- mortality at 100 µg/mL (skin cancer (A431); A-431, 100 μg/mL): 100%
- IC50 (skin cancer (A431); A-431, MTT): 45.8 ± 0.15 µM
- DNA damaged cells % (mean ± SEM) (HCT116 [1]): 21.26 ± 0.48^ab %
- Class 0 (no tail), number of cells (HCT116 [1]; of 400 cells analyzed): 315
- Class 1 (tail length < diameter of nucleus), number of cells (HCT116 [1]; of 400 cells analyzed): 33
- Class 2 (tail length between 1 and 2 × the diameter of nucleus), number of cells (HCT116 [1]; of 400 cells analyzed): 24
- Class 3 (tail length > 2 × the diameter of nucleus), number of cells (HCT116 [1]; of 400 cells analyzed): 28
- No. of cells, Comets (HCT116 [1]; of 400 cells analyzed): 85
- Change (DNA fragmentation versus untreated cells) (A549 [2]): 19.5
- DNA fragmentation % M ± SEM (A549 [2]; IC50 concentration, 24 h): 30.9 ± 1.64^a %
- Inhibition (A549 [2]; doxorubicin = 0.0): 0.0
- KRAS gene expression level (KRAS): significant reduction
- mortality at 100 µg/mL (colon cancer (HCT116); HCT-116, 100 μg/mL): 100%
- IC50 (colon cancer (HCT116); HCT-116, MTT): 69.2 ± 0.1 µM
- BRCA1 gene expression level (BRCA1): decreased significantly
- FASN gene expression level (FASN): suppression
- mortality at 100 µg/mL ([3]; PaCa-2, 100 μg/mL): 100%
- IC50 ([3]; PaCa-2, MTT): 52.1 ± 0.19 µM
- Class 0 (no tail), number of cells (A549 [4]): 314
- Class 1 (tail length < diameter of nucleus), number of cells (A549 [4]): 25
- Class 2 (tail length between 1 and 2 × the diameter of nucleus), number of cells (A549 [4]): 32
- Class 3 (tail length > 2 × the diameter of nucleus), number of cells (A549 [4]): 29
- No. of cells, Comets (A549 [4]): 86
- Change (DNA fragmentation versus untreated cells) (HCT116 [5]): 21.00
- Inhibition (HCT116 [5]; doxorubicin = 0.00): 0.00
- mortality at 100 µg/mL (prostate cancer (PC3); 100 μg/mL): 100%
- IC50 (prostate cancer (PC3); MTT): 43.8 ± 0.47 µM
- BRCA2 gene expression level (BRCA2): decreased significantly
- mortality at 100 µg/mL ([6]; 100 μg/mL): 100%
- IC50 ([6]; MTT): 39.7 ± 0.18 µM
- CDKN2A gene expression level (CDKN2A): significantly reduced
- EGFR gene expression level (EGFR): significant reduction
- Change (DNA fragmentation versus untreated cells) (PACA2 [7]): 18.00
- DNA fragmentation % M ± SEM (PACA2 [7]; IC50 concentration, 24 h): 30.1 ± 0.62^b %
- Inhibition (PACA2 [7]; doxorubicin = 0.0): 0.0
- IC50 [8]: 24.8 ± 0.52 µM
- mortality at 48 h, 100 µg/mL (in vitro): 100%
- PALB2 gene expression level (PALB2): significantly reduced
- mortality at 100 µg/mL ([9]; 100 μg/mL): 100%
- IC50 ([9]; MTT): 52.1 ± 0.28 µM
- TP53 gene expression level (TP53): suppression
- DNA damaged cells % (mean ± SEM) (PC3 [10]): 20.76 ± 1.38^b %
- Class 0 (no tail), number of cells (PC3 [10]; of 400 cells analyzed): 317
- Class 1 (tail length < diameter of nucleus), number of cells (PC3 [10]; of 400 cells analyzed): 39
- Class 2 (tail length between 1 and 2 × the diameter of nucleus), number of cells (PC3 [10]; of 400 cells analyzed): 30
- Class 3 (tail length > 2 × the diameter of nucleus), number of cells (PC3 [10]; of 400 cells analyzed): 14
- No. of cells, Comets (PC3 [10]; of 400 cells analyzed): 83
- mortality at 100 µg/mL ([11]; 100 μg/mL): 100%
- IC50 ([11]; MTT): 24.3 ± 0.24 µM
- Change (DNA fragmentation versus untreated cells) (PC3 [12]): 20.1
- DNA fragmentation % M ± SEM (PC3 [12]; IC50 concentration, 24 h): 31.7 ± 0.85^b %
- Inhibition (PC3 [12]; doxorubicin = 0.0): 0.0
- DNA damaged cells % (mean ± SEM) (PACA2 [13]): 20.25 ± 0.75^a %
- Class 1 (tail length < diameter of nucleus), number of cells (PACA2 [13]; of 400 cells analyzed): 28
- Class 2 (tail length between 1 and 2 × the diameter of nucleus), number of cells (PACA2 [13]; of 400 cells analyzed): 26
- Class 3 (tail length > 2 × the diameter of nucleus), number of cells (PACA2 [13]; of 400 cells analyzed): 27
- No. of cells, Comets (PACA2 [13]; of 400 cells analyzed): 81

Reference: PMC10579241, “Impact of trifluoromethyl and sulfonyl groups on the biological activity of novel aryl-urea derivatives: synthesis, in-vitro, in-silico and SAR studies” (Scientific Reports, 2023)
